According to PMC11801715, “Activating PKC-ε induces HIV expression with improved tolerability” (PLOS Pathogens, 2025):
Where “and” joins values, the source holds several entries; their conditions need not be identical. Equal values may be shown once.

Columns and labels:
platelet-rich plasma = assay: Platelet aggregation assay (light transmittance aggregometry); assay type: cell-based, human
Procedure: Given that C-232A induced DIC in rats and monkeys, we tested whether C-232A could directly induce platelet activation and downstream aggregation. […] Adenosine diphosphate, a known platelet agonist, was used as a positive control (S7A Fig).
Aggregation of platelets was assessed using light transmittance aggregometry using standard methods.
(A) Assay principle for platelet aggregation assay.

CD69 on CD4+ T cells = assay: CD4+ T-cell activation flow cytometry (CD69); assay type: cell-based; conditions: Homo sapiens; CD4+ T cells from ART-suppressed people with HIV; read-out: EC50, activation of CD69 expression
Procedure: Sixteen hours post treatment with PKC agonists, cellular activation of 100,000 CD4^+ T cells, taken from the above ex vivo HIV activation cultures, was assessed using flow cytometry. Cell surface expression of CD69 was measured on CD4^+ T cells using anti-human CD3 (UCHT1), CD4 (SK3) and CD69 (FN50) antibodies and standard flow staining methods. Stained cells were acquired on the Becton Dickinson (BD) LSR Fortessa II flow cytometer and results were analyzed using FlowJo software.

Sprague Dawley rats = assay: In vivo rat study: tolerability, clinical pathology, histopathology
Procedure: Wild-type male Sprague Dawley (Hsd: Sprague Dawley SD) rats (8–15 weeks old) were sourced from the Covance stock colony for conduct of in vivo studies at Covance Laboratories Inc. (Madison, Wisconsin, USA). Rats were administered a single dose of vehicle control (n = 3), or 0.1, 0.3, 1, or 3 mg/kg C-232A (n = 6), or 10 mg/kg C-233 by intravenous infusion over 30 minutes. Blood samples were collected through 24 hours postdose. Samples for PK measurement of C-232A concentration were processed to plasma and shipped to Gilead Sciences (Foster City, California, USA). Samples were analyzed at Covance Laboratories for hematology and clinical chemistry panels. At unscheduled necropsy (3 mg/kg C-232A), tissues were preserved in 10% neutral-buffered formalin, embedded in paraffin, mounted on slides, and stained with hematoxylin and eosin. Tissues were then evaluated independently (Experimental Pathology Laboratories, Inc).

[1] = tested on: EGR1 and CD69 mRNA in whole blood; assay: EGR1 and CD69 mRNA levels in rat blood (QuantiGene); assay type: in vivo
Procedure: EGR1 and CD69 mRNA expression levels were measured in whole blood, processed using Affymetrix QuantiGene Sample Processing Kit (Thermo Fisher Scientific, catalog QS0111). Quantigene multiplex analysis was performed on 1:3 diluted blood using probes specific for rat EGR1 (Thermo Fisher Scientific, catalog nm_012551) and CD69 (catalog nm_134327), as per the kit’s instructions (Thermo Fisher Scientific, catalog QP-1014) and normalized to PPIB (catalog nm_022536) and β-actin (catalog nm_031144).

PKC-θ = PKC-θ (Homo sapiens, UniProt Q04759); assay: PKC isoform translocation in A549-tGFP cells; assay type: cell-based; set-up: host or cells: A549; conditions: for EC50: A549-tGFP cells, 60 minutes; for ε selectivity, PKC-θ: EC50 of PKC-θ divided by EC50 of PKC-ε
Procedure: (§1) A description of this effort is reported elsewhere.
(§2) Cellular translocation of PKC isoforms upon activation was determined in 8 A549 cell lines, each expressing a single PKC isoform fused to tGFP (PhenoVista Biosciences). Cells were plated in 384-well plates (80 μL/well) at 10^5 cells/mL in RPMI with 10% FBS and rested overnight. PKC agonist(s) were serially diluted at 1:3 steps in DMSO and added to the cells. After 60 minutes in an incubator at 37 °C, 5% CO2, cells were stained with Hoechst-33342 and fixed with 2% paraformaldehyde for 30 minutes at 4 °C. Cells were then stained with wheat germ agglutinin conjugated to AlexaFluor647 (WGA-647) for 10 minutes at 4 °C, washed to remove excess dye and imaged with Cellomics Array Scan (Thermo Fisher) at room temperature (RT). Images were analyzed using Cellomics automated image analysis algorithm. Plasma membrane translocation was quantified using the ratio between the average fluorescence in the areas at the cell edge defined by WGA-647 and the cytoplasm region.

PKC-η = PKC-η (Homo sapiens, UniProt P24723); assay: PKC isoform translocation in A549-tGFP cells; assay type: cell-based; set-up: host or cells: A549; conditions: for EC50: A549-tGFP cells, 60 minutes; for ε selectivity, PKC-η: EC50 of PKC-η divided by EC50 of PKC-ε
Procedure: as §1, §2

PKC-δ = PKC-δ (Homo sapiens, UniProt Q05655); assay: PKC isoform translocation in A549-tGFP cells; assay type: cell-based; set-up: host or cells: A549; conditions: for EC50: A549-tGFP cells, 60 minutes, read-out: EC50 for PKC-δ translocation; for ε selectivity, PKC-δ: EC50 of PKC-δ divided by EC50 of PKC-ε
Procedure: as §1, §2

PBMCs = assay: Cytokine induction in vitro in PBMC culture supernatants; assay type: cell-based, human; conditions: 24 hours
Procedure: Culture supernatants were analyzed for induction of several cytokines as shown in S3 Table, using a 10-plex MSD (Meso Scale Discovery) assay following manufacturer’s instructions. MSD Workbench 4.0 software was used for data analysis and 4-parameter logistic curve fit model was utilized to determine values of experimental samples from standard curves. Values for each cytokine (pg/mL) for a given concentration was calculated as the geometric mean of all triplicate values combined from all 5 donors.

Sequence of PKC-δ (Q05655 whole entry, canonical isoform): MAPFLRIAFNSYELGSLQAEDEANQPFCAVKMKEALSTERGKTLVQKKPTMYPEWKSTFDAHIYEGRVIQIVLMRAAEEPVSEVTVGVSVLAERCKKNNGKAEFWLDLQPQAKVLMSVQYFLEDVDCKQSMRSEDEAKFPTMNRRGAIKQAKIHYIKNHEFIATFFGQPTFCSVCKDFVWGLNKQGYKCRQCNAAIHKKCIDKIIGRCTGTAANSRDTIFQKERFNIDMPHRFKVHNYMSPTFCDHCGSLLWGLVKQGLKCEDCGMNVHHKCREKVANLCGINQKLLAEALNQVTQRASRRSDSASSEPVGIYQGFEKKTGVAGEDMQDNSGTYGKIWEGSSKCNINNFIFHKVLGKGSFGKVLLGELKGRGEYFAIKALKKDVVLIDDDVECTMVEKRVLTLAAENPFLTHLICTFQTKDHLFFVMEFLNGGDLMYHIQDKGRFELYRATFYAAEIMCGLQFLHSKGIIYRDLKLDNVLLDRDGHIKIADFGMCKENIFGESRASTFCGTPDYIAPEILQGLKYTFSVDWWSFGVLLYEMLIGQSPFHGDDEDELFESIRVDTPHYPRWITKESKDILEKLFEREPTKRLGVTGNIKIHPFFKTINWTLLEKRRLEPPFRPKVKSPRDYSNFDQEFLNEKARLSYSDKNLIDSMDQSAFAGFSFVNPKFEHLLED
Sequence of PKC-η (P24723 whole entry, canonical isoform): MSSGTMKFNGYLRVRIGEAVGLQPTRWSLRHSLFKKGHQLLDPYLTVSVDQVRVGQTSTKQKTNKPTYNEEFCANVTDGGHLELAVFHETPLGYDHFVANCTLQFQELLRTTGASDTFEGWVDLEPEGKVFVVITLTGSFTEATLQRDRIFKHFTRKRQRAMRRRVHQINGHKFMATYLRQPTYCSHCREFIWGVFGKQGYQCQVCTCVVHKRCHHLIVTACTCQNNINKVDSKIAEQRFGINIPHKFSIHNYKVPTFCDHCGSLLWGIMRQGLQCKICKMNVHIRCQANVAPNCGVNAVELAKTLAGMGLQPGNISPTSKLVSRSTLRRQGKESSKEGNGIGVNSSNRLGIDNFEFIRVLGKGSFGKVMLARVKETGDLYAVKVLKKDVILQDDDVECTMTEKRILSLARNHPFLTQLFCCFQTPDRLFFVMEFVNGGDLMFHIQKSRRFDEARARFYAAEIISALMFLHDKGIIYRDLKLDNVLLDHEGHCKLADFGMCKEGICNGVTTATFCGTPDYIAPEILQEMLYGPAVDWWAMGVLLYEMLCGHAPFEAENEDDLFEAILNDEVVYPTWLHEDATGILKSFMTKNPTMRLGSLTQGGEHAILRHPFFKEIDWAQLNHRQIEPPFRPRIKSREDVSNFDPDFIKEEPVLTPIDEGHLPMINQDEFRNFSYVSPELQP
Sequence of PKC-θ (Q04759 whole entry, canonical isoform): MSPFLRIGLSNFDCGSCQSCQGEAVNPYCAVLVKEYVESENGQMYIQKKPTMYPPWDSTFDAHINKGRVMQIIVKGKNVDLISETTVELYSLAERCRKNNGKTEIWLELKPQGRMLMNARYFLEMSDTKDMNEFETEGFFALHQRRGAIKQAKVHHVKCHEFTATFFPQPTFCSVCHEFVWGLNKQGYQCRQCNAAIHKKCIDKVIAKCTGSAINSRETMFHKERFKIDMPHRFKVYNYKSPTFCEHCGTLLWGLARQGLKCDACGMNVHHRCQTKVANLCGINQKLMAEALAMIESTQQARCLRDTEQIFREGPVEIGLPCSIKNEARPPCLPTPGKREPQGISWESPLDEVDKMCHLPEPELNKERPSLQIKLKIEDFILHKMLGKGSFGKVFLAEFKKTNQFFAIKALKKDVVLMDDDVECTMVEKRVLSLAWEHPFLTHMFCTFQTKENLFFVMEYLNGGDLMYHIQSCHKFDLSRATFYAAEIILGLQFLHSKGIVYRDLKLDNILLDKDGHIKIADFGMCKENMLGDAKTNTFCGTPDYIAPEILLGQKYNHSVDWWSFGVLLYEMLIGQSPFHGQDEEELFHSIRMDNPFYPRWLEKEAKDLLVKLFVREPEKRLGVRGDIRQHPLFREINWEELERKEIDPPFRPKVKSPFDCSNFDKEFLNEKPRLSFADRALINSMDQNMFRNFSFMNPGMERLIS

SMILES	relative potency for platelet aggregation (platelet-rich plasma)	EC50 (CD69 on CD4+ T cells) [µM]	EC50 (PKC-θ)	ε selectivity, PKC-θ (PKC-θ)	EC50 (PKC-η) [µM]	ε selectivity, PKC-η (PKC-η)	EC50 (PKC-δ)	ε selectivity, PKC-δ (PKC-δ)	GM-CSF in PBMC culture supernatant (PBMCs; 156 nM) [pg/mL]	IFN-γ in PBMC culture supernatant (PBMCs; 156 nM) [pg/mL]	IL-1b in PBMC culture supernatant (PBMCs; 156 nM) [pg/mL]	IL-2 in PBMC culture supernatant (PBMCs; 156 nM) [pg/mL]	IL-4 in PBMC culture supernatant (PBMCs; 156 nM) [pg/mL]	IL-6 in PBMC culture supernatant (PBMCs; 156 nM) [pg/mL]	IL-8 in PBMC culture supernatant (PBMCs; 156 nM)	IL-10 in PBMC culture supernatant (PBMCs; 156 nM) [pg/mL]	IL-12p70 in PBMC culture supernatant (PBMCs; 156 nM) [pg/mL]	TNF-α in PBMC culture supernatant (PBMCs; 156 nM) [pg/mL]	GM-CSF in PBMC culture supernatant (PBMCs; 625 nM) [pg/mL]	IFN-γ in PBMC culture supernatant (PBMCs; 625 nM) [pg/mL]	further results
Cc1ccc(C#Cc2ccc3oc(CC(C)(C)C(=O)OCC4(CO)CC(=CCC(CC(C)C)CC(C)C)C(=O)O4)cc3c2)cc1 (centres unmarked) [C-232A]	less potent than prostratin	0.057	0.176 µM and 0.18 µM	3	0.1	2	0.714 µM and 0.71 µM	12	40	202	72	14	0.4	84	43,224 pg/mL	4.9	7	883	71	172	platelet aggregation (platelet-rich plasma; dilution series, 20 minutes): stimulated platelet aggregation; rats euthanized due to severe clinical signs (Sprague Dawley rats; 1 mg/kg, single IV infusion): 1 of the 6 and 1 of 6; histopathology (Sprague Dawley rats; 3 mg/kg): thrombi associated with congestion and hemorrhage in the lung and brain; outcome (moribund condition) (Sprague Dawley rats; 3 mg/kg, single IV infusion, n = 6): euthanized within 6 hours postdose; tolerability (Sprague Dawley rats; 0.1 and 0.3 mg/kg, single IV infusion, 6 rats): well tolerated; circulating platelet counts (Sprague Dawley rats; higher doses): < 100,000 platelets/µL; mean platelet volume (Sprague Dawley rats; higher doses): > 15 fL; EGR1 and CD69 transcription ([1]; 0.1-3 mg/kg): dose-dependent increases in EGR1 and CD69 transcription; IL-1b in PBMC culture supernatant (PBMCs; 625 nM): 125 pg/mL; IL-2 in PBMC culture supernatant (PBMCs; 625 nM): 17 pg/mL; IL-4 in PBMC culture supernatant (PBMCs; 625 nM): 0.6 pg/mL; IL-6 in PBMC culture supernatant (PBMCs; 625 nM): 100 pg/mL; IL-8 in PBMC culture supernatant (PBMCs; 625 nM): 45,964 pg/mL; IL-10 in PBMC culture supernatant (PBMCs; 625 nM): 3.6 pg/mL; IL-12p70 in PBMC culture supernatant (PBMCs; 625 nM): 9 pg/mL; TNF-α in PBMC culture supernatant (PBMCs; 625 nM): 1424 pg/mL
Cc1ccc(C#Cc2ccc(C(=O)OCC3(CO)Cc4c(-c5ccccc5)ccnc4O3)cc2)cc1 (centres unmarked) [C-233]	less potent than C-232A and prostratin	0.099	1.5 µM	6	1.1	5	47 µM	196	14	215	42	10	0.3	40	36,739 pg/mL	4	5	308	30	135	platelet aggregation at concentrations below 10 μM (platelet-rich plasma; 20-minute stimulation): little or no aggregation; platelets and mean platelet volume (Sprague Dawley rats; 10 mg/kg): without any significant depletion of platelets or increased mean platelet volume; adverse events (Sprague Dawley rats; 10 mg/kg, single IV infusion): no adverse events were observed; EGR1 and CD69 mRNA induction versus C-232A (1 mg/kg) ([1]; 10 mg/kg): higher induction of EGR1 and CD69 mRNA levels; IL-1b in PBMC culture supernatant (PBMCs; 625 nM): 60 pg/mL; IL-2 in PBMC culture supernatant (PBMCs; 625 nM): 14 pg/mL; IL-4 in PBMC culture supernatant (PBMCs; 625 nM): 0.6 pg/mL; IL-6 in PBMC culture supernatant (PBMCs; 625 nM): 44 pg/mL; IL-8 in PBMC culture supernatant (PBMCs; 625 nM): 45,465 pg/mL; IL-10 in PBMC culture supernatant (PBMCs; 625 nM): 4 pg/mL; IL-12p70 in PBMC culture supernatant (PBMCs; 625 nM): 9 pg/mL; TNF-α in PBMC culture supernatant (PBMCs; 625 nM): 834 pg/mL
